Experimental data taken from the CheMixHub viscosity set.
Where “and” joins values, the source holds several entries; their conditions need not be identical. Equal entries are not always repeated.

Test: xn = mol fraction of the nth substance listed

COCCOC + CC1COC(=O)O1
viscosity
Details	298.15 K	308.15 K	318.15 K
101 kPa, x1 = 0.2	1.617 mPa·s and 1.616 mPa·s	–	–
101 kPa, x1 = 0.45	1.009 mPa·s and 1.007 mPa·s	–	–
101 kPa, x1 = 0.7	0.66 mPa·s and 0.659 mPa·s	–	–
101.33 kPa, x1 = 0.0493	2.227 mPa·s	1.833 mPa·s	1.561 mPa·s
101.33 kPa, x1 = 0.0999	1.96 mPa·s	1.659 mPa·s	1.417 mPa·s
101.33 kPa, x1 = 0.1524	1.752 mPa·s	1.495 mPa·s	1.277 mPa·s
101.33 kPa, x1 = 0.1867	1.637 mPa·s	1.402 mPa·s	–
101.33 kPa, x1 = 0.2298	1.507 mPa·s	1.297 mPa·s	1.113 mPa·s
101.33 kPa, x1 = 0.2769	–	1.183 mPa·s	–
101.33 kPa, x1 = 0.3128	1.289 mPa·s	–	0.9676 mPa·s
101.33 kPa, x1 = 0.3708	1.162 mPa·s	0.9973 mPa·s	0.881 mPa·s
101.33 kPa, x1 = 0.4036	1.097 mPa·s	0.9447 mPa·s	0.8272 mPa·s
101.33 kPa, x1 = 0.4686	0.9699 mPa·s	–	–
101.33 kPa, x1 = 0.5193	0.8882 mPa·s	0.7779 mPa·s	0.6827 mPa·s
101.33 kPa, x1 = 0.5704	–	0.7178 mPa·s	0.6389 mPa·s
101.33 kPa, x1 = 0.6382	0.7272 mPa·s	–	0.5728 mPa·s
101.33 kPa, x1 = 0.6767	0.6885 mPa·s	0.6105 mPa·s	0.5449 mPa·s
101.33 kPa, x1 = 0.7589	0.6047 mPa·s	–	0.4782 mPa·s
101.33 kPa, x1 = 0.8103	0.5589 mPa·s	0.5052 mPa·s	0.4571 mPa·s
101.33 kPa, x1 = 0.8432	0.5429 mPa·s	0.4728 mPa·s	0.4376 mPa·s
101.33 kPa, x1 = 0.9035	0.4872 mPa·s	0.4381 mPa·s	0.397 mPa·s
101.33 kPa, x1 = 0.9483	0.4564 mPa·s	0.4073 mPa·s	0.375 mPa·s
101.33 kPa, x2 = 0.2217	0.5911 mPa·s	0.5265 mPa·s	0.4711 mPa·s
101.33 kPa, x2 = 0.3749	0.7628 mPa·s	0.6716 mPa·s	0.5956 mPa·s
101.33 kPa, x2 = 0.5841	1.099 mPa·s	0.9453 mPa·s	0.8342 mPa·s
101.33 kPa, x2 = 0.7836	1.594 mPa·s	1.356 mPa·s	1.168 mPa·s

COC(C)=O + CC#N
303.15 K, 101.33 kPa
Details	viscosity [mPa·s]
x2 = 0.1087	0.3472
x2 = 0.1994	0.3482
x2 = 0.3009	0.3485
x2 = 0.4037	0.3481
x2 = 0.4994	0.3474
x2 = 0.5996	0.3461
x2 = 0.7019	0.3429
x2 = 0.7979	0.3376
x2 = 0.9006	0.3322

COc1ccccc1N + CC(=O)O
viscosity [mPa·s], 100 kPa
Details	x1 = 0.1011	x1 = 0.1745	x1 = 0.2562	x1 = 0.3454	x1 = 0.4852	x1 = 0.5894	x1 = 0.6674	x1 = 0.7458	x1 = 0.8979
303.15 K	1.442	1.732	2.053	2.402	2.947	3.351	3.652	3.953	4.535
308.15 K	1.349	1.618	1.916	2.24	2.745	3.118	3.397	3.676	4.214
313.15 K	1.257	1.505	1.78	2.078	2.541	2.885	3.141	3.397	3.891
318.15 K	1.166	1.394	1.646	1.92	2.346	2.662	2.897	3.132	3.584
